The subject of one experiment is Candida orthopsilosis. Nature of the experiment: Antifungal activity against Candida orthopsilosis clinical isolate bloodstream form assessed as induction of miniparadoxical effect at 32 mg/L after 48 hrs by time-kill assay. Format: functional, organism-based.
In experiment [1] the test system is Candida parapsilosis. The experiment is described as follows: Antifungal activity against Candida parapsilosis clinical isolate bloodstream form assessed as induction of miniparadoxical effect at 32 mg/L after 48 hrs by time-kill assay. The class given is functional, organism-based.
Experiment [2] relates to Candida parapsilosis. Nature of the experiment: Antifungal activity against Candida parapsilosis clinical isolate bloodstream form assessed as fungal count at 1 mg/L measured at 6 hrs by time-kill assay. The class given is functional.
Experiment [3] has as its system Candida metapsilosis. Nature of the experiment: Antifungal activity against Candida metapsilosis clinical isolate bloodstream form assessed as minimum concentration required for => 3-log decrease in fungal growth after 12 to 48 hrs by time-kill assay. Format: functional.
Experiment [4] has as its system Candida metapsilosis. The experiment is described as follows: Antifungal activity against Candida metapsilosis clinical isolate bloodstream form assessed as induction of maximal fungal death at 16 mg/L after 48 hrs by time-kill assay. Format: functional, organism-based.
Experiment [5] deals with Candida parapsilosis. The experiment is described as follows: Antifungal activity against Candida parapsilosis clinical isolate bloodstream form assessed as induction of miniparadoxical effect at 16 mg/L after 48 hrs by time-kill assay. The class given is functional, organism-based.
In experiment [6] the test system is Candida parapsilosis. The experiment is described as follows: Antifungal activity against Candida parapsilosis clinical isolate bloodstream form assessed as minimum concentration required for => 3-log decrease in fungal growth after 12 to 48 hrs by time-kill assay. Format: functional.

The source made the active and inactive calls. No cut-off for these calls is given here. Numbered stars: 1 amine (or outer) side, 2 acyl side, 3 side chain; on linkers, the order of the positions; unused ones are H or OH. Bridge positions count the residues as written; N and C are the ends. Square brackets hold non-standard residues; d marks the D form. Peptide text beside a SMILES is read from it. * marks the point of attachment. hTyr(3S-OH,4S-OH,3'-OSO3H) = N[C@H](C(=O)O)[C@H](O)[C@@H](O)c1ccc(O)c(OS(=O)(=O)O)c1; pTerphenylCO(4''-OnC5H11) = CCCCCOc1ccc(-c2ccc(-c3ccc(C(=O)*)cc3)cc2)cc1; Orn(4R-OH,5R-OH) = O=C([C@H](C[C@@H](O)[C@@H](O)N[*:3])N[*:1])[*:2]; hTyr(3S-OH,4S-OH) = N[C@H](C(=O)O)[C@H](O)[C@@H](O)c1ccc(O)cc1; Pro(3S-OH,4S-Me) = C[C@H]1CN[C@H](C(=O)O)[C@H]1O; X1 = CCCCCOc1ccc(-c2cc(-c3ccc(C(=O)*)cc3)no2)cc1; Gln(3R-OH) = NC(=O)C[C@@H](O)[C@H](N)C(=O)O; Hyp = O=C(O)[C@@H]1C[C@@H](O)CN1

As for `CCCCCOc1ccc(-c2ccc(-c3ccc(C(=O)N[C@H]4C[C@@H](O)[C@@H](O)NC(=O)[C@@H]5[C@@H](O)[C@@H](C)CN5C(=O)[C@H]([C@@H](C)O)NC(=O)[C@H]([C@H](O)[C@@H](O)c5ccc(O)cc5)NC(=O)[C@@H]5C[C@@H](O)CN5C(=O)[C@H]([C@@H](C)O)NC4=O)cc3)cc2)cc1` [ANIDULAFUNGIN] ({pTerphenylCO(4''-OnC5H11)}-[Orn(4R-OH,5R-OH)]T[Hyp][hTyr(3S-OH,4S-OH)]T[Pro(3S-OH,4S-Me)]; lactam 1-C), the result in the experiment with Candida orthopsilosis and with Candida parapsilosis [1] was Active.

For `CCCCCOc1ccc(-c2cc(-c3ccc(C(=O)N[C@H]4C[C@@H](O)[C@@H](O)NC(=O)[C@@H]5[C@@H](O)[C@@H](C)CN5C(=O)[C@H]([C@H](O)CC(N)=O)NC(=O)[C@H]([C@H](O)[C@@H](O)c5ccc(O)c(OS(=O)(=O)O)c5)NC(=O)[C@@H]5C[C@@H](O)CN5C(=O)[C@H]([C@@H](C)O)NC4=O)cc3)no2)cc1` [MICAFUNGIN] (X1-[Orn(4R-OH,5R-OH)]T[Hyp][hTyr(3S-OH,4S-OH,3'-OSO3H)][Gln(3R-OH)][Pro(3S-OH,4S-Me)]; lactam 1-C), the log10cfu with Candida parapsilosis [2] was 1.22 /ml.

As for `CC[C@H](C)C[C@H](C)CCCCCCCCC(=O)N[C@H]1C[C@@H](O)[C@@H](NCCN)NC(=O)[C@@H]2[C@@H](O)CCN2C(=O)[C@H]([C@H](O)CCN)NC(=O)[C@H]([C@H](O)[C@@H](O)c2ccc(O)cc2)NC(=O)[C@@H]2C[C@@H](O)CN2C(=O)[C@H]([C@@H](C)O)NC1=O` [CASPOFUNGIN], the MED in the experiment on Candida metapsilosis [3] and in the experiment on Candida parapsilosis [6] was 14 mg/L each time. Moreover, the result in the experiment on Candida metapsilosis [4] and with Candida parapsilosis [5] was Active.

Values taken from ChEMBL document CHEMBL1255421, “In vitro fungicidal activities of echinocandins against Candida metapsilosis, C. orthopsilosis, and C. parapsilosis evaluated by time-kill studies” (2010).
